Measurements: PubChem BioAssay AID2060615 (Molecular Pharmacology Branch, DTP, NCI, 2025)
Several values for one entry are separate records, joined by “and”; a condition that tells them apart may be missing. Equal entries are not always repeated.

System: 496974-208-R-J2-PDC complex spheroids, growth % test/control
Assay: Anticancer human tumor 496974-208-R-J2-PDC patient-derived pancreatic carcinoma cell line growth inhibition [CLK]
Settings: for viability, T/C: stronger effect = lower value
From the text: A high-throughput screen of multi-cell type tumor spheroids was designed to identify active combinations of […] and targeted small molecules. Complex spheroids include a stromal component modeled by human endothelial cells (HUVEC) and fibroblasts modeled by human mesenchymal stem cells (MSCs). The concentration ranges selected for each drug and investigational agent were based upon clinically achievable concentrations if the clinical Cmax of the agent was known.
Compounds. The drugs and investigational agents: cirtuvivint (SM08502; NSC835563), CC-671 (NSC850746), vemurafenib (NSC761431), tapotoclax (NSC804041), sotorasib (NSC818433), adagrasib (NSC831453), MRTX-1133 (NSC836407), BAY2416964 (NSC825713), copanlisib (NSC816437), inavolisib (NSC800729), abemaciclib (NSC768073), osimertinib (NSC779217), entinostat (NSC756642), eltanexor (KPT-8602, NSC794443), venetoclax (NSC766270), ceralasertib (NSC777638), bortezomib (NSC756655), olaparib (NSC753686), talazoparib (NSC767125), alisertib (NSC759677), peposertib (NSC802822), gemcitabine (NSC613327), 5-fluorouracil (NSC19893), SN-38 (NSC673596), oxaliplatin (NSC266046), paclitaxel (NSC125973), and doxorubicin (NSC123127), were obtained from the National Cancer Institute (NCI) Developmental Therapeutics Program Chemical Repository. The FDA-approved anticancer drug set is available from the Developmental Therapeutics Program at https://dtp.cancer.gov/organization/dscb/obtaining/available plates.htm. […] The stock solutions were prepared in dimethyl sulfoxide (DMSO, Sigma-Aldrich, St. Louis, MO, cat. D2650), except for the platinum complexes which were prepared in saline (Quality Biological, Gaithersburg, MD, cat. 114-055-101), at 800-fold the tested concentration and stored at -70 degrees C prior to their use. All drugs and investigational agents were tested over a range starting from a high concentration at or near the clinical Cmax and decreasing in half-log increments. If the clinical Cmax for an agent had not been determined, the highest concentration tested was 10 microM.
Cell Culture. All cells were maintained in an incubator at 37 degrees C and 5% CO2 with 95% humidity. The PDC lines were cultured according to standard operating procedures established by the NCI PDMR. Briefly, all PDCs were thawed and cultured in Matrigel-coated flasks prepared with a working solution of 1X Ham's F-12 nutrient mix, without supplementation (Invitrogen, Waltham, MA, cat. 11765054), 100 U/mL penicillin-streptomycin (Invitrogen, cat. 15140122), and 2.5% Matrigel (Corning Inc., Corning, NY, cat. 354248) for the first three passages. The 947758-054-R-J2-PDC line was cultured in 6B/Colon 1A media, which includes advanced DMEM/F-12 (Thermo Fisher Scientific, cat. 12634028), 10 mM HEPES (Thermo Fisher Scientific, cat. 15630080), 1X GlutaMAX supplement (Thermo Fisher Scientific, cat. 35050061), 0.1 mg/mL primocin (InvivoGen, cat. ant-pm-2), 10% defined fetal bovine serum, heat inactivated (HyClone Laboratories Inc., cat. SH30070.03HI), 1.25 mM N-Acetyl-L-cysteine (Sigma-Aldrich, cat. A9165), 10 mM nicotinamide (Sigma-Aldrich, cat. N0636), 1X B-27 supplement (Thermo Fisher Scientific, cat. 17504044), 1X N-2 supplement (Thermo Fisher Scientific, cat. 17502048), and 10 microM Y-27632 dihydrochloride (Tocris Bioscience, cat. 1254). The 876862-298-R-J1-PDC was cultured in 6E media, which includes all 6B/Colon 1A media components plus 50% L-WRN conditioned media (ATCC, cat. CRL-3276), 50 ng/mL recombinant human EGF recombinant protein (hEGF; Thermo Fisher Scientific, cat. PHG0311), 10 ng/mL recombinant human fibroblast growth factor 10 (hGFG-10; PeproTech, cat. 100-26), 1 ng/mL recombinant human fibroblast growth factor 2 (hFGF-2; PeproTech, cat. 100-18B), and 1 µM prostaglandin E2 (PGE2; Tocris, cat. 2296). The 227483-062-R1-J1-PDC line was cultured in Panc media, containing all 6E components except hFGF-2, with the addition of 500 nM SB-431542 (Selleckchem, cat. S1067) and 10 nM gastrin (Tocris, cat. 3006). […]
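Also: spheroids exposed to the drugs for 7 days before readout.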
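For viability, T/C in this document: 100% = DMSO vehicle control wells.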

SMILES	IC50 (curve of compound)	viability, T/C (compound 0.0316 µM)	viability, T/C (compound 0.1 µM)	viability, T/C (compound 0.316 µM)	viability, T/C (compound 1 µM)	viability, T/C (compound 3.16 µM)	viability, T/C (compound 10 µM)	other results
C#Cc1c(F)ccc2cc(O)cc(-c3ncc4c(N5CC6CCC(C5)N6)nc(OCC56CCCN5CC(F)C6)nc4c3F)c12 (stereo not drawn)	0.471 µM and 0.364 µM	63.5% and 68.8%	57.4% and 58.6%	48.7% and 48%	48.6% and 46.5%	44.9% and 50.8%	38% and 43.1%	
C=C(F)C(=O)N1CCN(c2nc(OCC3CCCN3C)nc3c2CCN(c2cccc4cccc(Cl)c24)C3)CC1CC#N (stereo not drawn)	5.48 µM and 5.56 µM	111% and 105%	108% and 95.4%	97% and 89.5%	95.8% and 87.1%	93.5% and 98.2%	2.37% and 3.13%	
CC(Nc1ccc2c(c1)OCCn1cc(N3C(=O)OCC3C(F)F)nc1-2)C(N)=O (stereo not drawn)	0.195 µM and 0.18 µM	89.2% and 89.5%	65.6% and 63.4%	39.2% and 36.6%	18.8% and 22.9%	13.1% and 14.9%	7.32% and 10.9%	
CC1(C)CCC(CN2CCN(c3ccc(C(=O)NS(=O)(=O)c4ccc(NCC5CCOCC5)c([N+](=O)[O-])c4)c(Oc4cnc5[nH]ccc5c4)c3)CC2)=C(c2ccc(Cl)cc2)C1	8.67 µM and 8.19 µM	115% and 95.7%	89% and 88.2%	99% and 101%	99.4% and 99.5%	96.8% and 94.7%	43.4% and 40.6%	
CC1COCCN1c1cc(C2(S(C)(=N)=O)CC2)nc(-c2ccnc3[nH]ccc23)n1 (stereo not drawn)	5.36 µM and 7.19 µM	119% and 107%	105% and 97.9%	85.5% and 91%	94.4% and 89.3%	57.5% and 62%	36% and 44.6%	
CCc1c2c(nc3ccc(O)cc13)-c1cc3c(c(=O)n1C2)COC(=O)[C@]3(O)CC	0.00604 µM and 0.00848 µM	25.7% and 35.4%	17.4% and 23.2%	9.88% and 12.9%	2.2% and 3.2%			viability, T/C (compound 0.00316 µM): 67.2% and 61.3%; viability, T/C (compound 0.01 µM): 32.4% and 47.9%
CN1CCN(c2cc(C(=O)Nc3cc4cc(-c5cnn(C)c5)ccc4cn3)ccn2)CC1		103% [middle of 12 runs]	87.9% [middle of 12 runs]	6.96% [middle of 11 runs]	1.74% [middle of 12 runs]	0.79% [middle of 12 runs]	0.34% [middle of 8 runs]	IC50 (compound alone, run of 09/18/2023): 171 nM [middle of 11 runs]
CNC(=O)c1ccc(Nc2nc(OC3CCCC3)c3c(-c4ccc5nc(C)oc5c4)c[nH]c3n2)c(OC)c1		97.8% [middle of 7 runs]	85.7% [middle of 10 runs]	78.1% [middle of 10 runs]	70.6% [middle of 10 runs]	62.4% [middle of 10 runs]	57.3% [middle of 10 runs]	IC50 (compound alone, run of 09/19/2023): > 10 µM
COC1C=CCC(C)C(C)S(=O)(=O)NC(=O)c2ccc3c(c2)N(CC2CCC21)CC1(CCCc2cc(Cl)ccc21)CO3 (stereo not drawn)	6.38 µM and 4.15 µM	99.2% and 100%	95.3% and 65.2%	89.4% and 82.5%	75.1% and 74.3%	60.6% and 58.6%	43.4% and 26%	
NC(=O)C(=Cn1cnc(-c2cc(C(F)(F)F)cc(C(F)(F)F)c2)n1)c1cncnc1	0.106 µM and 0.135 µM							viability, T/C (compound 0.00949 µM): 97.8% and 78.4%; viability, T/C (compound 0.03 µM): 71.3% and 68.7%; viability, T/C (compound 0.0949 µM): 57.4% and 59.5%; viability, T/C (compound 0.3 µM): 29.5% and 32%; viability, T/C (compound 0.949 µM): 16% and 23.8%; viability, T/C (compound 3 µM): 11.6% and 13.4%
Nc1ccn(C2OC(CO)C(O)C2(F)F)c(=O)n1 (stereo not drawn)		89.3% and 93.5%	67.2% and 76.4%	57.7% and 72.4%	44.9% and 58%	50.7% and 63.3%	44.3% and 53.2%	
O=c1[nH]cc(F)c(=O)[nH]1	6.83 µM and > 10 µM	114% and 115%	103% and 95.1%	101%	78.4% and 79.6%	55.1% and 71.4%	47.6% and 53.4%	

Continued, in another order:

IC50 (curve of compound)	SMILES	viability, T/C (compound 0.0316 µM)	viability, T/C (compound 0.1 µM)	viability, T/C (compound 0.316 µM)	viability, T/C (compound 1 µM)	viability, T/C (compound 3.16 µM)	viability, T/C (compound 10 µM)	other results
> 10 µM	C=CC(=O)N1CCN(c2nc(=O)n(-c3c(C)ccnc3C(C)C)c3nc(-c4c(O)cccc4F)c(F)cc23)C(C)C1 (stereo not drawn)	112% and 102%	108% and 87.1%	109% and 91.7%	111% and 97.7%	107% and 108%	86.8% and 80.7%	
> 0.3 µM	C=CC(=O)Nc1cc(Nc2nccc(-c3cn(C)c4ccccc34)n2)c(OC)cc1N(C)CCN(C)C							viability, T/C (compound 0.000949 µM): 102% and 103%; viability, T/C (compound 0.003 µM): 99.3% and 105%; viability, T/C (compound 0.00949 µM): 86% and 93.1%; viability, T/C (compound 0.03 µM): 85.4% and 94.9%; viability, T/C (compound 0.0949 µM): 98.1% and 88.5%; viability, T/C (compound 0.3 µM): 70.9% and 70.3%
0.00385 µM	CC(C)CC(NC(=O)C(Cc1ccccc1)NC(=O)c1cnccn1)B(O)O (stereo not drawn)							viability, T/C (compound 0.000949 µM): 99.9%; viability, T/C (compound 0.003 µM): 63.8%; viability, T/C (compound 0.00949 µM): 0.44%; viability, T/C (compound 0.03 µM): 0.67%; viability, T/C (compound 0.0949 µM): 0.24%; viability, T/C (compound 0.3 µM): 0.27%
8.39 µM and > 10 µM	CC(CO)NC(=O)c1cc(-c2ccc(Cl)cc2)nn(-c2cnn(C)c2)c1=O (stereo not drawn)	106% and 99.5%	105% and 97.1%	96.2% and 100%	85.5% and 96.2%	91.6% and 91.4%	42.6% and 52.9%	
7.38 µM and 6.35 µM	CCCS(=O)(=O)Nc1ccc(F)c(C(=O)c2c[nH]c3ncc(-c4ccc(Cl)cc4)cc23)c1F	108% and 106%	92.2% and 91.8%	100% and 95.3%	108% and 93.8%	87.8% and 93.4%	36.3% and 21.7%	
> 1 µM	CCN1CCN(Cc2ccc(Nc3ncc(F)c(-c4cc(F)c5nc(C)n(C(C)C)c5c4)n3)nc2)CC1	87.1% and 90.3%	82.4% and 97.8%	90.3% and 92.8%	96.5% and 103%			viability, T/C (compound 0.00316 µM): 102% and 112%; viability, T/C (compound 0.01 µM): 93.9% and 90.8%
0.0167 µM and 0.0144 µM	COc1c(OCCCN2CCOCC2)ccc2c3n(c(=NC(=O)c4cnc(N)nc4)nc12)CCN3	32.8% and 28.6%	9.98% and 14.7%	7.88% and 8.03%	3.01% and 3.54%			viability, T/C (compound 0.00316 µM): 93.4% and 97.4%; viability, T/C (compound 0.01 µM): 64.2% and 60%
> 0.1 µM	Cn1ncnc1[C@H]1c2n[nH]c(=O)c3cc(F)cc(c23)N[C@@H]1c1ccc(F)cc1	93.3% and 95.1%	86% and 104%					viability, T/C (compound 0.000316 µM): 109% and 106%; viability, T/C (compound 0.001 µM): 103% and 99.5%; viability, T/C (compound 0.00316 µM): 90.4% and 101%; viability, T/C (compound 0.01 µM): 95.2% and 99.5%
4.37 µM and 4.16 µM	Nc1ccccc1NC(=O)c1ccc(CNC(=O)OCc2cccnc2)cc1	104% and 112%	86.3% and 98.7%	85.9% and 86.6%	77.5% and 72.4%	74.1% and 77.9%	0.53% and 0.83%	
> 10 µM	O=C(c1cc(Cc2n[nH]c(=O)c3ccccc23)ccc1F)N1CCN(C(=O)C2CC2)CC1	99.1%	85.5%	94.7%	98.4%	95.2%	86.7%	
